# Data as given in paper PMC3034247 (Cell metabolism, 2010).
# Changes are numbered by the printed parent chain.
# What was measured:
# Experiment in all cases: [3H]cholesterol saturation binding, Ni-NTA capture, scintillation counting
# [1] = target: T1, NPC2 (NPC2-His10) (Homo sapiens, UniProt P61916)
# T1 sequence (P61916 20-151): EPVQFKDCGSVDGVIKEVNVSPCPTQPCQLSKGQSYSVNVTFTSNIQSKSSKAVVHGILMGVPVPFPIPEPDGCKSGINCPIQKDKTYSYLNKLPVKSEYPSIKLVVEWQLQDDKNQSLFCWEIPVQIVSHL
# [2] = target: T2, NPC2 (NPC2-His10) (Homo sapiens, UniProt P61916, V81D)
# T2 sequence (P61916 20-151 V81D): T1 sequence (P61916 20-151) with V62D
# [3] = target: T3, NPC2 (NPC2-His10) (Homo sapiens, UniProt P61916, V81A)
# T3 sequence (P61916 20-151 V81A): T1 sequence (P61916 20-151) with V62A
smiles,measurement,setting,value
CC(C)CCC[C@@H](C)[C@H]1CC[C@H]2[C@@H]3CC=C4C[C@@H](O)CC[C@]4(C)[C@H]3CC[C@]12C [cholesterol],Kd,[1],0.081 µM
same,Kd,[2],0.072 µM
same,Kd,[3],0.08 µM
